“And” between values parts separate entries of the source, which are not always exact repeats. Identical values can stand only once. “Also recorded” adds a separate entry of the source.
What was measured:
P2X7R = target: T1, P2X7R (Homo sapiens, UniProt Q99572); experiment: In vitro autoradiography on post mortem human brain tissue (AD patients and controls); assay type: binding; conditions: tracer 28 nM
T1 construct: Snap frozen human post-mortem; tissue The Netherlands Brain Bank; host or cells: post mortem human temporal cortex (AD patients and non-neurological controls)
T1 sequence (Q99572 1-595): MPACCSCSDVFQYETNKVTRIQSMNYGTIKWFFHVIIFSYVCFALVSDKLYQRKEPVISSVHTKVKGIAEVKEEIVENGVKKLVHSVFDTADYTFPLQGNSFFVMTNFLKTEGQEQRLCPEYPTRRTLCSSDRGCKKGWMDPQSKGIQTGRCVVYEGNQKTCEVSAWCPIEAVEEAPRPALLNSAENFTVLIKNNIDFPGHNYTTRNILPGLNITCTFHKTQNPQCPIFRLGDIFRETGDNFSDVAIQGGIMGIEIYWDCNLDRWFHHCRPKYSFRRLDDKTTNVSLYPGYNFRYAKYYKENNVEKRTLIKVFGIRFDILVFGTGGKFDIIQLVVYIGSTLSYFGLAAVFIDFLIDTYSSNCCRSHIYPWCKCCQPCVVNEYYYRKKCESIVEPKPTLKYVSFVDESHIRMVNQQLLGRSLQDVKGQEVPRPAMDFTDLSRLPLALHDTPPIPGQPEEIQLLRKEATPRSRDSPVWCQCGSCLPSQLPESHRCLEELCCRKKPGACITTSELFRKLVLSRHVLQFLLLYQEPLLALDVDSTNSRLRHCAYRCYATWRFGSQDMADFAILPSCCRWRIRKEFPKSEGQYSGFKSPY

[1] = Ex vivo metabolite analysis (plasma and brain) in healthy male Wistar rats; parameters: species or system rat
Protocol: (§1) In vivo stability of analogues [^11C]1–3 and [^11C]SMW139 was assessed in healthy male Wistar rats at 15 and 45 minutes after injection of 30–40 MBq of formulated tracer. […] Results obtained in plasma correspond with previously reported stability results in rat liver microsomes. A higher level of intact tracer was found in brain (Table 3) for [^11C]1 and [^11C]SMW139 compared with [^11C]2 and [^11C]3. Despite optimisation of the extraction method, the percentage of total radioactivity that could be extracted from brain homogenates was not optimal for all four compounds (59 ± 6% for [^11C]1; 58 ± 7% for [^11C]2; 61 ± 4% for [^11C]3; 62 ± 3% for [^11C]SMW139). Therefore, based on its highest stability in plasma in vivo, [^11C]SMW139 was selected for further in vivo studies. As imaging studies were performed in female rats, plasma metabolites were also determined in two female rats, and no differences were found between plasma metabolism of [^11C]SMW139 in male and female rats (Table S1; Supplementary Information).
For each of the carbon-11 labelled benzamide analogues [^11C]1–3 and [^11C]SMW139, a biodistribution study and metabolite analysis in healthy male Wistar rats was performed, as described in detail in the Supplementary Information. Briefly, tracer distribution in blood, brain, and peripheral organs was measured at 5, 15, 30 and 45 min after intravenous injection of 13–23 MBq of formulated tracer. Metabolite analysis was performed at 15 and 45 min after intravenous injection of 30–40 MBq of formulated tracer in both blood plasma and brain. […]
(§2) Ex vivo metabolite analysis
(§3) Healthy male and female Wistar rats (254-440 g) were injected with 30-40 MBq (at start of experiment) of formulated tracer in the tail vein under isoflurane anaesthesia. Rats were sacrificed at 15 and 45 min (n = 3 per time point). Blood samples were obtained and the brain was excised. Blood samples were collected in heparin tubes (BD Vacutainer NH 119 I.U., 7 mL, BD Vacutainer Systems, Plymouth, UK) and centrifuged at 4,000 rpm for 5 min at 4 °C (Hettich Universal 32, Andreas Hettich GmbH & Co.KG, Tuttlingen, Germany). Plasma supernatant was separated from blood cells and loaded onto a tC18 Sep-Pak (Waters, Milford, MA, USA), followed by washing with 3 mL of water to obtain the polar fraction. The non-polar fraction was then eluted with 2 mL of MeOH and 1 mL of water and further analysed by HPLC. The brain was put in a falcon tube containing 4 mL MeCN/H2O (50:50 v/v) and homogenised with a disperser (IKA T18 B Ultra-Turrax, IKA®-Werke GmbH & Co.KG, Staufen, Germany) before centrifugation (5 min, 4,000 rpm, 20 °C, Hettich Universal 32). Supernatant was separated from brain precipitate and analysed by HPLC. Analytical HPLC was performed with Dionex (Sunnyvale, CA, USA) UltiMate 3000 HPLC equipment with Chromeleon software (version 6.8) on a Gemini C18 5-µm (10 x 250 mm) column (Phenomenex, Torrance, CA, USA) with gradient and a mixture of MeCN (A) and 0.1% DIPA in water (B) as eluent according to the following scheme: 0 min, […]
(§4) 0.25 mL·min-1. All separate fractions were counted for radioactivity in a Wizard Gammacounter 1470 or 2480 (Wallac/PerkinElmer, Waltham, MA, USA).

mouse P2X7R = test system: mouse P2X7R; parameters: method as in PMID 28841278; conditions: cited from earlier work
[2] = Plasma metabolite analysis in female rAAV-hP2X7R rats; assay type: in vivo; conditions: female rat
Protocol: as §1, with “Information). […]” for “Information).”
as §2, §3, §4
Table S1: Metabolic profile of [11C]SMW139 in female rAAV-hP2X7R rats. […]

With [11CH3]Oc1ccc(Cl)c(C(=O)NCC23CC4(F)CC(F)(CC(F)(C4)C2)C3)c1 [[^11C]SMW139] as the molecule, how does the “Tracer binding in white matter vs grey matter” value (P2X7R; AD patients and controls) read?
The value was “Higher tracer binding was observed in white matter compared with grey matter; also recorded: higher in white matter than in grey matter”.

What about the “Tracer binding in AD patients vs non-neurological controls” value (P2X7R; temporal cortex, grey and white matter) of the same molecule?
The value was “does not differ significantly; also recorded: did not differ significantly; also recorded: no significant differences”.

And the “Intact tracer (%)” value ([1]; rat brain, 15 min p.i.)?
Its value is 79 ± 1%.

And the “Intact tracer (%)” value ([1]; rat brain, 45 min p.i.)?
Its value is 66 ± 2%.

What about the “Intact tracer (%)” value ([1]; rat plasma, 15 min p.i., male Wistar rats) of the same molecule?
Its value is 60 ± 1%.

And the “Intact tracer (%)” value ([1]; rat plasma, 45 min p.i., male Wistar rats)?
Its value is 42% and 42 ± 2%.

And the “Affinity lower for mouse P2X7R compared with hP2X7R” value (mouse P2X7R)?
The value was 6 fold.

And the “Intact tracer (%)” value ([2]; Rat 1, 15 min)?
The value was 78%.

What about the “Intact tracer (%)” value ([2]; Rat 1, 45 min) of the same molecule?
The value was 50%.

What about the “Intact tracer (%)” value ([2]; Rat 2, 15 min) of the same molecule?
The value was 63%.

What about the “Intact tracer (%)” value ([2]; Rat 2, 45 min) of the same molecule?
The value was 32%.
